These compounds were tested against ROCK2 (Homo sapiens, UniProt O75116) (assay: ROCK kinase inhibition assay, FITC peptide substrate, LABCHIP 3000 readout). Details: 5 μM ATP, 1.5 μM peptide substrate.
Assay type: biochemical
Procedure: Compounds were dissolved in DMSO so that the final concentration of DMSO was <2%, and the reaction was initiated with Rho kinase variants. After incubation, the reaction was terminated by the addition of EDTA and the phosphorylated and non-phosphorylated peptides separated using a LABCHIP® 3000 Reader (Caliper Life Sciences). […] Compounds were tested in dose-response format, and the inhibition of kinase activity was calculated at each concentration of compound.

ROCK2, sequence (O75116 whole entry, species assumed): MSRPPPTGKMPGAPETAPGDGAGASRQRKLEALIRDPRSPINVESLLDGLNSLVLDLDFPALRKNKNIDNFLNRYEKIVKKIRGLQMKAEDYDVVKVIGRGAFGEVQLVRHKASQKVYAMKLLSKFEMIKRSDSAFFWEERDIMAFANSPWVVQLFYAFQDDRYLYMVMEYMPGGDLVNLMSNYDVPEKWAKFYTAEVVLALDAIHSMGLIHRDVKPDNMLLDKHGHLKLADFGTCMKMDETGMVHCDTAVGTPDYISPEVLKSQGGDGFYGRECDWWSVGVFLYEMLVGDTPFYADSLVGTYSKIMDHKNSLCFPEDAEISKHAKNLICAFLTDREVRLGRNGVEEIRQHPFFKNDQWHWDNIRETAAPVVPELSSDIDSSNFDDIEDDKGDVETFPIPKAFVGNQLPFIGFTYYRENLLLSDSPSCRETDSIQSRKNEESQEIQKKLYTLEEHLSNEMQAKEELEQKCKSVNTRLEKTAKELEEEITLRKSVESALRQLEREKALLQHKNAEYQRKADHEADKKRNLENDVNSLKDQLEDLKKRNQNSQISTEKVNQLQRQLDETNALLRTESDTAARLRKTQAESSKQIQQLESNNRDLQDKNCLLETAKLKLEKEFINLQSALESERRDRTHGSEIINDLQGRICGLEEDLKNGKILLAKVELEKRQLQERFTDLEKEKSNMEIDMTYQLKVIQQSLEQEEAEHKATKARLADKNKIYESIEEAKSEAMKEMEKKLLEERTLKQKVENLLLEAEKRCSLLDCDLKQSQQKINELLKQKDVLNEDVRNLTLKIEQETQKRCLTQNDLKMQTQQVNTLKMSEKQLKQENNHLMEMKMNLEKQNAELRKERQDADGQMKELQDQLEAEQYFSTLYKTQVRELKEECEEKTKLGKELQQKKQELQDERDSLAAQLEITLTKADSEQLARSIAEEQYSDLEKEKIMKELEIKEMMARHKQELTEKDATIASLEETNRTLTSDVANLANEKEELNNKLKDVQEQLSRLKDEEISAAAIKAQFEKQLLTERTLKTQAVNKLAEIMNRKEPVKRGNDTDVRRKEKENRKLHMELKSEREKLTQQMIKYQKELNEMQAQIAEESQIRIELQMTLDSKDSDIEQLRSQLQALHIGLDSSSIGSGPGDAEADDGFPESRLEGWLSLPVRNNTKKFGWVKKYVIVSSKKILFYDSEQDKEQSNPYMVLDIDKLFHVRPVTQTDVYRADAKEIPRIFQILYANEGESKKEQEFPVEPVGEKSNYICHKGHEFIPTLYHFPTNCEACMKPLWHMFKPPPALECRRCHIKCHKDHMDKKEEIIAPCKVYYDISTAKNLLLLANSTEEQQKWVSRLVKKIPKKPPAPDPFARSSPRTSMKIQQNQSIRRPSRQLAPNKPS

Q: With `COc1cc(N2CCC3(CCN(C(=O)Nc4cccnc4)CC3)C2=O)ccc1-c1cn[nH]c1` [Example 214, 2-[3-methoxy-4-(1H-pyrazol-4-yl)phenyl]-1-oxo-N-(pyridin-3-yl)-2,8-diazaspiro[4.5]decane-8-carboxamide] as the compound, how does the IC50 read?
A: 1480 nM

Q: For `CN1CCN(c2ccc(C(=O)N3CCC4(CC3)CCN(c3ccc(-c5ccncc5F)cc3)C4=O)cc2)CC1` [Example 33, 2-[4-(3-fluoropyridin-4-yl)phenyl]-8-[4-(4-methylpiperazin-1-yl)benzoyl]-2,8-diazaspiro[4.5]decan-1-one], which IC50 is on record?
A: 1.3 nM

Q: With `COc1cc(N2CCC3(CCN(C(=O)c4ccc(C(N)=O)cc4)CC3)C2=O)ccc1-c1cn[nH]c1` [Example 23, 4-{2-[3-methoxy-4-(1H-pyrazol-4-yl)phenyl]-1-oxo-2,8-diazaspiro[4.5]decane-8-carbonyl}benzamide] as the compound, how does the IC50 read?
A: 36 nM

Q: How did the IC50 turn out when `COc1cc(N2CCC3(CCN(C(=O)c4cc(C)n(C)n4)CC3)C2=O)ccc1-c1cn[nH]c1` [Example 188, 8-(1,5-dimethyl-1H-pyrazole-3-carbonyl)-2-[3-methoxy-4-(1H-pyrazol-4-yl)phenyl]-2,8-diazaspiro[4.5]decan-1-one] was run?
A: 31 nM

Q: `COc1cc(N2CCC3(CCN(C(=O)c4ncc(OC)c5ccccc45)CC3)C2=O)ccc1-c1cn[nH]c1` [Example 90, 2-[3-methoxy-4-(1H-pyrazol-4-yl)phenyl]-8-(4-methoxyisoquinoline-1-carbonyl)-2,8-diazaspiro[4.5]decan-1-one] was tested. Which IC50 did it give?
A: 127 nM

Q: Which IC50 does the source give for `COc1cc(N2CCC3(CCN(C(=O)c4cnc5n(c4=O)CCS5)CC3)C2=O)ccc1-c1cn[nH]c1` [Example 81, 2-[3-methoxy-4-(1H-pyrazol-4-yl)phenyl]-8-{5-oxo-2H,3H,5H-[1,3]thiazolo[3,2-a]pyrimidine-6-carbonyl}-2,8-diazaspiro[4.5]decan-1-one] here?
A: 57 nM

Q: Which IC50 does the source give for `CN1CCN(c2ccc(C(=O)N3CCC4(CC3)CCN(c3ccc(-c5ccc6cn[nH]c6c5)cc3)C4=O)cc2)CC1` [Example 34, 2-[4-(1H-indazol-6-yl)phenyl]-8-[4-(4-methylpiperazin-1-yl)benzoyl]-2,8-diazaspiro[4.5]decan-1-one] here?
A: 106 nM

Q: `O=C1N(c2ccc(-c3cn[nH]c3)cc2)CCC12CCN(S(=O)(=O)c1ccccc1)C2` (centres unmarked) [Example 46, 7-(benzenesulfonyl)-2-[4-(1H-pyrazol-4-yl)phenyl]-2,7-diazaspiro[4.4]nonan-1-one] was tested. Which IC50 did it give?
A: 750 nM

Q: Which IC50 does the source give for `COc1cc(N2CCC3(CCN(C(=O)c4ccc(N5CCN(CC(c6ccccc6)c6ccccc6)CC5)cc4)CC3)C2=O)ccc1-c1cn[nH]c1` [Example 222, 8-{4-[4-(2,2-diphenylethyl)piperazin-1-yl]benzoyl}-2-[3-methoxy-4-(1H-pyrazol-4-yl)phenyl]-2,8-diazaspiro[4.5]decan-1-one] here?
A: 9.3 nM

Q: With `COc1cc(N2CCC3(CCN(C(=O)c4ccc5c(c4)OCO5)CC3)C2=O)ccc1-c1cn[nH]c1` [Example 69, 8-(2H-1,3-benzodioxole-5-carbonyl)-2-[3-methoxy-4-(1H-pyrazol-4-yl)phenyl]-2,8-diazaspiro[4.5]decan-1-one] as the compound, how does the IC50 read?
A: 93 nM

Q: Which IC50 does the source give for `COc1cc(N2CCC3(CCN(C(=O)c4ccc(N5CCN(Cc6ccc(OCCCN(C)C)cc6)CC5)cc4)CC3)C2=O)ccc1-c1cn[nH]c1` [Example 237, 8-{4-[4-({4-[3-(dimethylamino)propoxy]phenyl}methyl)piperazin-1-yl]benzoyl}-2-[3-methoxy-4-(1H-pyrazol-4-yl)phenyl]-2,8-diazaspiro[4.5]decan-1-one] here?
A: 0.1 nM

Q: Which IC50 does the source give for `COc1cc(N2CCC3(CCN(C(=O)c4ccc(-n5cnnn5)cc4)CC3)C2=O)ccc1-c1cn[nH]c1` [Example 118] here?
A: 57 nM

Q: Which IC50 does the source give for `COc1cc(N2CCC3(CCN(C(=O)c4ccno4)CC3)C2=O)ccc1-c1cn[nH]c1` [Example 97, 2-[3-methoxy-4-(1H-pyrazol-4-yl)phenyl]-8-(1,2-oxazole-5-carbonyl)-2,8-diazaspiro[4.5]decan-1-one] here?
A: 427 nM

Q: For `COc1cc(N2CCC3(CCN(C(=O)c4ccc(N5CCN(Cc6ccc(C(F)(F)F)cc6)CC5)cc4)CC3)C2=O)ccc1-c1cn[nH]c1` [Example 234, 2-[3-methoxy-4-(1H-pyrazol-4-yl)phenyl]-8-[4-(4-{[4-(trifluoromethyl)phenyl]methyl}piperazin-1-yl)benzoyl]-2,8-diazaspiro[4.5]decan-1-one], which IC50 is on record?
A: 4.1 nM

Q: `O=C(C1CC1)N1CCC2(CC1)CCN(c1ccc(-c3cn[nH]c3)cc1)C2=O` [Example 7, 8-cyclopropanecarbonyl-2-[4-(1H-pyrazol-4-yl)phenyl]-2,8-diazaspiro[4.5]decan-1-one] was tested. Which IC50 did it give?
A: 875 nM

Q: Which IC50 does the source give for `COc1cc(N2CCC3(CCN(C(=O)c4c(C)cc(C(N)=O)cc4C)CC3)C2=O)ccc1-c1cn[nH]c1` [Example 30, 4-{2-[3-methoxy-4-(1H-pyrazol-4-yl)phenyl]-1-oxo-2,8-diazaspiro[4.5]decane-8-carbonyl}-3,5-dimethylbenzamide] here?
A: 130 nM

Q: With `COc1cc(N2CCC3(CCN(C(=O)c4ccc5ccccc5c4)CC3)C2=O)ccc1-c1cn[nH]c1` [Example 64, 2-[3-methoxy-4-(1H-pyrazol-4-yl)phenyl]-8-(naphthalene-2-carbonyl)-2,8-diazaspiro[4.5]decan-1-one] as the compound, how does the IC50 read?
A: 104 nM

Q: For `COc1cc(N2CCC3(CCN(C(=O)c4ccc(N5CCN(Cc6csnn6)CC5)cc4)CC3)C2=O)ccc1-c1cn[nH]c1` [Example 224, 2-[3-methoxy-4-(1H-pyrazol-4-yl)phenyl]-8-(4-{4-[(1,2,3-thiadiazol-4-yl)methyl]piperazin-1-yl}benzoyl)-2,8-diazaspiro[4.5]decan-1-one], which IC50 is on record?
A: 1.5 nM

Q: With `COc1cc(N2CCC3(CCN(C(=O)c4ccc(-n5ccccc5=O)cc4)CC3)C2=O)ccc1-c1cn[nH]c1` [Example 117, 2-[3-methoxy-4-(1H-pyrazol-4-yl)phenyl]-8-[4-(2-oxo-1,2-dihydropyridin-1-yl)benzoyl]-2,8-diazaspiro[4.5]decan-1-one] as the compound, how does the IC50 read?
A: 7 nM

Q: How did the IC50 turn out when `COc1cc(N2CCC3(CCN(C(=O)c4cnn5cccnc45)CC3)C2=O)ccc1-c1cn[nH]c1` [Example 198, 2-[3-methoxy-4-(1H-pyrazol-4-yl)phenyl]-8-{pyrazolo[1,5-a]pyrimidine-3-carbonyl}-2,8-diazaspiro[4.5]decan-1-one] was run?
A: 1060 nM

Q: Which IC50 does the source give for `COc1cc(N2CCC3(CCN(C(=O)c4ccc(N5CCN(CCC(F)(F)F)CC5)cc4)CC3)C2=O)ccc1-c1cn[nH]c1` [Example 240, 2-[3-methoxy-4-(1H-pyrazol-4-yl)phenyl]-8-{4-[4-(3,3,3-trifluoropropyl)piperazin-1-yl]benzoyl}-2,8-diazaspiro[4.5]decan-1-one] here?
A: 1 nM

Q: `COc1cc(N2CCC3(CCN(C(=O)c4ccc(N5CCOC5=O)cc4)CC3)C2=O)ccc1-c1cn[nH]c1` [Example 141, 2-[3-methoxy-4-(1H-pyrazol-4-yl)phenyl]-8-[4-(2-oxo-1,3-oxazolidin-3-yl)benzoyl]-2,8-diazaspiro[4.5]decan-1-one] was tested. Which IC50 did it give?
A: 3 nM

Q: How did the IC50 turn out when `COc1cc(N2CCC3(CCN(C(=O)c4ccc(N5CCN(CCc6ccccc6)CC5)cc4)CC3)C2=O)ccc1-c1cn[nH]c1` [Example 239, 2-[3-methoxy-4-(1H-pyrazol-4-yl)phenyl]-8-{4-[4-(2-phenylethyl)piperazin-1-yl]benzoyl}-2,8-diazaspiro[4.5]decan-1-one] was run?
A: 0.6 nM

Q: How did the IC50 turn out when `COc1cc(N2CCC3(CCN(C(=O)c4ccc(N5CCN(Cc6ccc(Cl)cc6)CC5)cc4)CC3)C2=O)ccc1-c1cn[nH]c1` [Example 227, 8-(4-{4-[(4-chlorophenyl)methyl]piperazin-1-yl}benzoyl)-2-[3-methoxy-4-(1H-pyrazol-4-yl)phenyl]-2,8-diazaspiro[4.5]decan-1-one] was run?
A: 2.2 nM

Q: Which IC50 does the source give for `COc1cc(N2CCC3(CCN(C(=O)c4ccc(F)c(C)c4)CC3)C2=O)ccc1-c1cn[nH]c1` [Example 103, 8-(4-fluoro-3-methylbenzoyl)-2-[3-methoxy-4-(1H-pyrazol-4-yl)phenyl]-2,8-diazaspiro[4.5]decan-1-one] here?
A: 96 nM

Q: Which IC50 does the source give for `COc1cc(N2CCC3(CCN(S(=O)(=O)c4ccc5c(c4)C(=O)NC5=O)CC3)C2=O)ccc1-c1cn[nH]c1` [Example 210, 5-({2-[3-methoxy-4-(1H-pyrazol-4-yl)phenyl]-1-oxo-2,8-diazaspiro[4.5]decan-8-yl}sulfonyl)-2,3-dihydro-1H-isoindole-1,3-dione] here?
A: 2310 nM

Q: With `COc1cc(N2CCC3(CCN(C(=O)c4cc(C(C)C)n5ncnc(O)c45)CC3)C2=O)ccc1-c1cn[nH]c1` [Example 200, 8-[4-hydroxy-7-(propan-2-yl)pyrrolo[2,1-f][1,2,4]triazine-5-carbonyl]-2-[3-methoxy-4-(1H-pyrazol-4-yl)phenyl]-2,8-diazaspiro[4.5]decan-1-one] as the compound, how does the IC50 read?
A: 2.1 nM

Q: With `COc1cc(N2CCC3(CCN(C(=O)c4ccc(-n5ccnc5)cc4)CC3)C2=O)ccc1-c1cn[nH]c1` [Example 95, 8-[4-(1H-imidazol-1-yl)benzoyl]-2-[3-methoxy-4-(1H-pyrazol-4-yl)phenyl]-2,8-diazaspiro[4.5]decan-1-one] as the compound, how does the IC50 read?
A: 13 nM

Q: How did the IC50 turn out when `COc1cc(N2CCC3(CCN(C(=O)c4ccc5nc(C(F)(F)F)cnc5c4)CC3)C2=O)ccc1-c1cn[nH]c1` [Example 138, 2-[3-methoxy-4-(1H-pyrazol-4-yl)phenyl]-8-[2-(trifluoromethyl)quinoxaline-6-carbonyl]-2,8-diazaspiro[4.5]decan-1-one] was run?
A: 63 nM

Q: With `COc1cccc(C(=O)N2CCC3(CC2)CCN(c2ccc(-c4cn[nH]c4)cc2)C3=O)c1` [Example 5, 8-(3-methoxybenzoyl)-2-[4-(1H-pyrazol-4-yl)phenyl]-2,8-diazaspiro[4.5]decan-1-one] as the compound, how does the IC50 read?
A: 85 nM

Q: Which IC50 does the source give for `COc1cc(N2CCC3(CCN(C(=O)c4ccc(-c5nnco5)cc4)CC3)C2=O)ccc1-c1cn[nH]c1` [Example 163, 2-[3-methoxy-4-(1H-pyrazol-4-yl)phenyl]-8-[4-(1,3,4-oxadiazol-2-yl)benzoyl]-2,8-diazaspiro[4.5]decan-1-one] here?
A: 16 nM

Q: For `CN1CCN(c2ccc(C(=O)N3CCC4(CC3)CCN(c3cccc(-c5cn[nH]c5)c3)C4=O)cc2)CC1` [Example 48, 8-[4-(4-methylpiperazin-1-yl)benzoyl]-2-[3-(1H-pyrazol-4-yl)phenyl]-2,8-diazaspiro[4.5]decan-1-one], which IC50 is on record?
A: 1100 nM
